Where two headings read alike, the source gives them in different places.
Key:
[1] = biological target: α-glucosidase; design: method as in PMID 31139399; conditions: soy protein-derived peptides; cited from earlier work
[2] = biological target: aldose reductase; design: method as in doi:10.3390/separations9090262; conditions: cited from earlier work
[3] = biological target: yeast α-glucosidase; assay: α-glucosidase inhibition assay; assay type: biochemical, Saccharomyces cerevisiae; conditions: for IC50: read-out: α-Glucosidase Inhibition IC50 (value in bracket) (converted)
Method: The α-glucosidase inhibition assay was performed following the method described by Huligere et al.. […] In this assay, one unit of activity was defined as the amount of enzyme required to release one µmol of p-nitrophenol from pNPG per minute under the specified experimental conditions. […] The reaction was maintained at 37 °C for an additional 20 min. Enzyme activity was determined by measuring the absorbance of liberated p-nitrophenol at 405 nm using a microplate reader (Spectramax i3, Molecular Devices, LLC, San Jose, CA, USA). […] IC50 values were determined by relating the percentage inhibition of each sample to its concentration.

[4] = biological target: T1, aldose reductase (Homo sapiens, UniProt P15121); assay: aldose reductase inhibition assay; assay type: biochemical
Method: The aldose reductase inhibition assay was performed according to the method described by Alharbi et al.. Briefly, a 1 mL reaction mixture comprised 0.87 mL of 100 mM Sodium phosphate buffer (pH 6.2), 0.05 mL of 3 mM NADPH, 0.01 mL of human aldose reductase (recombinant, 0.2 U/mL), with the enzyme’s activity being 0.2 IU/mL, and 0.02 mL of test compounds (designated as peptide 1 and peptide 2) at different concentrations. 0.05 mL of the substrate (DL-glyceraldehyde, five mM) was incubated in the reaction mixture for 3 min at 25 °C. Enzyme activity was determined by measuring the reduction in NADPH absorption at 340 nm over 10 min. […] Aldose reductase inhibitory activity was expressed as the percentage of inhibition.

[5] = methylglyoxal scavenging (Maillard reaction model, DNPH assay)
Method: This preliminary assay was conducted to evaluate the methylglyoxal scavenging activity of peptides derived from coconut milk. The Maillard reaction was employed to assess the scavenging potential of peptides against methylglyoxal, using parameters as outlined in previous studies by Risum et al., Zhu et al., and Brings et al., with modifications. The reaction mixture (1 mL) consisted of both peptides at different concentrations, methylglyoxal (0.01 mM), phosphate buffer, and water. It was incubated at two temperatures: room temperature (followed by immediate termination) and 37 °C (for 2 h). Following the incubation time, the reaction was terminated by adding 10 μL of glacial acetic acid. Creatine was used as a positive control. The experiments were performed in triplicate.
The scavenging potential of the peptides against methylglyoxal was determined using the DNPH assay. In brief, 25 μL of the sample was mixed with 975 μL of water and 1000 μL of DNPH reagent. The reaction mixture was shaken well and incubated at 37 °C for 10 min. Following incubation, the reaction was terminated by adding 1000 μL of 1.5 N NaOH, and the absorbance of the yellowish-orange complex was measured at 525 nm using […]: the MGO blank and the Creatine blank. Scavenging efficiency was calculated using Equations (4) and (5).(4) ACORR=Asample−Ablank (5) MGOscavenging=1−Acorr/AMGO,corr·100 where Asample is the absorbance of the reaction mixture containing methylglyoxal and the test compound (peptide or creatine), Ablank is the absorbance of the reagent blank (without methylglyoxal and without test compound), and AMGO,corr is the blank-corrected absorbance of the methylglyoxal blank (AMGO-Ablank). The creatine control was processed in the same way as the peptide samples.

[6] = biological target: T2, α-amylase (Sus scrofa, UniProt P00690); assay: enzyme inhibition kinetics (Lineweaver-Burk), α-amylase; assay type: biochemical, porcine; design: Vmax: unit not given here
T2 construct: purchased SRL (Sisco Research Laboratories)
T2 sequence (P00690 16-511): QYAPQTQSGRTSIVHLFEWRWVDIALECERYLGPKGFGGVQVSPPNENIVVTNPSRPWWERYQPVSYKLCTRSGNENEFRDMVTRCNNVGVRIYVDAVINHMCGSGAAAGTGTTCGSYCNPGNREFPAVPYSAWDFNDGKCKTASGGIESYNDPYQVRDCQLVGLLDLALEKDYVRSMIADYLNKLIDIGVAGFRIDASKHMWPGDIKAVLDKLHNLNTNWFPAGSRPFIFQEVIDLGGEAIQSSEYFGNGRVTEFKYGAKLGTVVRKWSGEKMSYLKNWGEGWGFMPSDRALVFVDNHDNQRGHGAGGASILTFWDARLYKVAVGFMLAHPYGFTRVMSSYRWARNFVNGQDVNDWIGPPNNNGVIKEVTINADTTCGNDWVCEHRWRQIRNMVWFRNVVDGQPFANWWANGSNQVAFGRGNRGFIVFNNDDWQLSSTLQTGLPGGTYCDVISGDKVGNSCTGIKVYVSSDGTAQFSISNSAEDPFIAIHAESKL
Description: (§1) Enzyme inhibition by coconut milk peptide 2 was further characterised for α-glucosidase, α-amylase and aldose reductase by steady-state kinetic analysis. […] In this context, v denotes the initial rate of product formation, whereas [S] denotes the concentration of the chromogenic or natural substrate used in each assay. Michaelis explained how v depends on [S] for each condition, as described by the Michaelis–Menten equation (Equation (2)):(2) v=VmaxS/Km+S Lineweaver–Burk double-reciprocal plots (Equation (3)) were then constructed by plotting 1/v versus 1/[S]:(3) 1/v=Km/Vmax·1/S+1/Vmax Michaelis–Menten parameters (Km and Vmax) and apparent inhibition constants (Ki) were obtained from these Lineweaver–Burk plots.

[7] = ABTS radical scavenging assay
Method: Concerning the ABTS assay, the ABTS^•+ radical cation was generated. Subsequently, 0.05 mL of the test samples (peptides 1 and 2) at various concentrations was mixed with 4.00 mL of ABTS^•+ solution and kept in the dark at room temperature for two h. The absorbance was determined at 734 nm using a UV–Vis Spectrophotometer (UV-1280 Shimadzu, Germany). Ascorbic acid was used as the positive control, and samples without the ABTS radical solution served as blanks. The results were expressed as the effective concentration (EC50) values.

[8] = superoxide radical scavenging assay (NBT)
Method: After 10 min of incubation at 25 °C in the dark, absorbance was recorded at 560 nm. Samples without NBT served as blanks, and ascorbic acid was used as the positive control. The results were expressed as the effective concentration (EC50) values.

[9] = tested on: human erythrocytes; assay: hemolytic assay; assay type: cell-based
Method: The hemolytic potential of the lead peptides was determined following an established erythrocyte hemolysis protocol. In brief, 15 mL of venous blood was drawn from a healthy individual, centrifuged at 3000 rpm for 10 min, and the plasma was discarded. The residual pellet (RBCs) was washed 3 times with PBS (pH 7.4, 0.1 M), and the resultant pellet was resuspended in PBS in a 1:10 ratio. Subsequently, 0.9 mL of the RBC suspension was incubated with 0.1 mL of peptides at various concentrations, a negative control (100 μL PBS + 900 μL RBC suspension), and a positive control (100 μL of 0.5% Triton-X-100 + 900 μL of RBC suspension), and incubated at 37 °C for 24 h. Post incubation, all tubes were centrifuged at 3000 rpm for 10 min. 0.1 mL of the supernatant was then transferred to 96-well plates, and the absorbance of the supernatant was read at 540 nm. […] The corrected values were calculated as Acontrol=Apos−Aneg and Asample=Atest−Aneg where Apos , Aneg and Atest are the absorbance values of the positive control, negative control, and peptide-treated sample (given concentration), respectively.

[10] = biological target: T1, aldose reductase; assay: enzyme inhibition kinetics (Lineweaver-Burk), aldose reductase; assay type: biochemical; design: Vmax: unit not given here
Description: as §1

[11] = tested on: α-glucosidase; assay: enzyme inhibition kinetics (Lineweaver-Burk), α-glucosidase; assay type: biochemical, Saccharomyces cerevisiae; design: Vmax: unit not given here
Description: as §1

[12] = biological target: T3, porcine pancreatic α-amylase (Sus scrofa, UniProt P00690); assay: α-amylase inhibition assay; assay type: biochemical
T3 construct: purchased SRL (Sisco Research Laboratories)
T3 sequence (P00690 16-511): T2 sequence (P00690 16-511)
Method: The enzymatic reaction was initiated by adding the starch substrate and allowed to proceed for 15 min. The reaction was then terminated by adding the 3,5-dinitrosalicylic acid (DNSA) reagent, and the mixture was heated to boiling for 5 min. […] IC50 values were obtained from plots of percentage inhibition versus sample concentration.

[13] = DPPH radical scavenging assay
Method: The antioxidant assays of the test compounds were conducted in vitro, following previous studies, using the standard DPPH, ABTS, and superoxide radical scavenging assays. Regarding the DPPH assay, 0.2 mL of the test samples (peptides 1 and 2) at various concentrations was added to 1.2 mL of a 40 μg/mL DPPH solution in methanol. The mixtures were shaken vigorously and incubated in the dark for 20 min, after which the reduction in DPPH absorption was measured at 517 nm. The samples without DPPH and with methanol served as blanks. Ascorbic acid was used as the positive control.

[14] = within 24 h at 5 mg/mL; cited from earlier work
[15] = cited from earlier work
[16] = mean ± SE, read-out: Ki (apparent inhibition constant) (converted)

**Q.** Which IC50 [1] does the source give for SWLRL here?
**A.** 182.1 ± 0.74 µM

**Q.** With “LPLPVLK [soy protein-derived peptide, literature]” as the compound, how does the IC50 [1] read?
**A.** 237.4 ± 0.52 µM

**Q.** Which “aldose reductase IC50” value [2] does the source give for `C[C@@H]1O[C@@H](OC[C@H]2O[C@@H](Oc3c(-c4ccc(O)c(O)c4)oc4cc(O)cc(O)c4c3=O)[C@H](O)[C@@H](O)[C@@H]2O)[C@H](O)[C@H](O)[C@H]1O` [rutin] here?
**A.** 7.86 ± 0.33 µg/mL

**Q.** Which results are given for H-ADVFNPR-OH [Peptide 2, ADVFNPR]?
**A.** IC50 ([3]; listed as peptide 2): 40.1 µM; α-Glucosidase Inhibition IC50 ([3]; mean ± SD): 32.82 ± 0.17 µg/mL; IC50 [3]: 40.1 µM; IC50 ([4]; mean ± SD, read-out: Aldose Reductase Inhibition IC50 (converted)): 24.8 µM; IC50 ([4]; read-out: Aldose Reductase Inhibition IC50 (value in bracket) (converted)): 24.8 µM; Methylglyoxal Scavenging EC50 at 37 °C, 2 h ([5]; 37 °C, 2 h): 182.17 ± 0.23 µg/mL; EC50 ([5]; read-out: Methylglyoxal Scavenging EC50 at 37 °C, 2 h (value in bracket), 37 °C, 2 h): 223 µM; Methylglyoxal Scavenging EC50 at RT ([5]; room temperature, immediate termination): 208.10 ± 0.65 µg/mL; EC50 ([5]; room temperature, immediate termination, read-out: Methylglyoxal Scavenging EC50 at RT (value in bracket) (converted)): 254 µM; Vmax ([6]; IC20—33.55 µg): 27.75; Vmax ([6]; IC40—67.10 µg): 26.26; Vmax ([6]; IC60—100.60 µg): 27.50; Mode of inhibition ([6]; from Lineweaver–Burk plot): Competitive; Ki [6, 16]: 1.64 µM; Vmax (essentially constant) ([6]; over IC20–IC60): ~27 µM/min; ABTS Radical Scavenging Assay EC50 [7]: 17.89 ± 0.20 µg/mL; EC50 ([7]; read-out: ABTS Radical Scavenging Assay EC50 (value in bracket) (converted)): 21.9 µM; Superoxide Radical Scavenging Assay EC50 [8]: 42.45 ± 0.30 µg/mL; EC50 ([8]; read-out: Superoxide Radical Scavenging Assay EC50 (value in bracket) (converted)): 51.9 µM; Hemolytic Assay (HC50) [9]: 231.53 ± 0.14 µg/mL; Hemolytic Assay (HC50) (value in bracket) ([9]; red cells of human, 24 h): 283.08 µM; Vmax ([10]; IC20—8.12 µg): 46.64; Vmax ([10]; IC40—16.23 µg): 46.02; Vmax ([10]; IC60—24.35 µg): 45.55; Mode of inhibition ([10]; from Lineweaver–Burk plot): Competitive; Ki [10, 16]: 0.954 µM; Vmax (essentially constant) ([10]; over IC20–IC60): ~46 µM/min; Vmax ([11]; IC20—13.13 µg): 14.87; Vmax ([11]; IC40—26.26 µg): 14.68; Vmax ([11]; IC60—39.39 µg): 14.50; Mode of inhibition ([11]; from Lineweaver–Burk plot): Competitive; Ki (apparent inhibition constant) ([11]; mean ± SE): 0.95 ± 0.09 µg; Vmax (essentially constant) ([11]; over IC20–IC60): ~15 µM/min; IC50 ([12]; mean ± SD, read-out: α-Amylase Inhibition IC50 (converted)): 103 µM; IC50 ([12]; read-out: α-Amylase Inhibition IC50 (value in bracket) (converted)): 103 µM; DPPH Radical Scavenging Assay EC50 [13]: 22.14 ± 0.12 µg/mL; EC50 ([13]; read-out: DPPH Radical Scavenging Assay EC50 (value in bracket) (converted)): 27.1 µM

**Q.** With WLRL as the compound, how does the IC50 [1] read?
**A.** 162.3 ± 0.74 µM

**Q.** With “VVFPGCPE [Ginkgo biloba peptide, literature]” as the compound, how does the methylglyoxal scavenging [14] read?
**A.** up to 66.50%

**Q.** What does the source list for YFYPEL?
**A.** superoxide scavenging activity [15]: 65.8 µg/mL; EC50 ([15]; read-out: superoxide scavenging activity (value in bracket)): 79.2 µM
